For 22 compounds, IC50 results are on record in patent publication US10138225B2 (Achillion Pharmaceuticals, Inc., priority 2015, dated 2018).

Where two headings read alike, the source gives them in different places.

This experiment concerns the target T1, Human Factor D (Homo sapiens, UniProt P00746).
T1 construct: purified from human serum; purchased Complement Technology, Inc; host or cells: human serum (natural protein, not recombinant)
Briefly: Human Factor D Assay. It is filed as biochemical. The method in brief:
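Serum-purified human factor D (80 nM final) was preincubated with compound for 5 min at room temperature in 50 mM Tris, 1 M NaCl, pH 7.5. Z-L-Lys-SBzl and DTNB were added at 100 μM each, and A405 was read every 30 s for 30 min. IC50 came from nonlinear regression of reaction rates versus compound concentration.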

Setting [1] is: Table 2, Factor D 80 nM, substrate Z-L-Lys-SBzl, read-out: IC50.
Where [2] appears, read: Table 3, factor D inhibition assay, read-out: IC50 (Stars).

T1 sequence (P00746 26-253): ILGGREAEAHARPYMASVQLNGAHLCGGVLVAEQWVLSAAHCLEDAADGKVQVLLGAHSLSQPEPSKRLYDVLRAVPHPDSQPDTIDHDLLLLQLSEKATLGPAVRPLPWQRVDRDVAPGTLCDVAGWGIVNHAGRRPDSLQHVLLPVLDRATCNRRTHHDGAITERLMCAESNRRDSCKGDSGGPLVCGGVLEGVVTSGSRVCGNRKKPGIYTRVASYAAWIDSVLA

Take `NC(=O)c1nn(CC(=O)N2C[C@H](F)C[C@H]2C(=O)Nc2cccc(-c3ccccc3Cl)c2F)c2cc(C(=O)N3CCOCC3)sc12` [Compound 59, 1-(2-((2S,4R)-2-(2′-chloro-2-fluorobiphenyl-3-ylcarbamoyl)-4-fluoropyrrolidin-1-yl)-2-oxoethyl)-5-(morpholine-4-carbonyl)-1H-thieno[3,2-c]pyrazole-3-carboxamide]: the IC50 – broadly, the point on the concentration scale where inhibition reaches its midpoint – under setting [1] is less than 1 µM.
On the same count and under the same terms, to `NC(=O)c1nn(CC(=O)N2C[C@H](F)C[C@H]2C(=O)Nc2cccc(-c3ccccc3Cl)c2F)c2cc(C(=O)N3CCCC3)sc12` [Compound 60, 1-(2-((2S,4R)-2-(2′-chloro-2-fluorobiphenyl-3-ylcarbamoyl)-4-fluoropyrrolidin-1-yl)-2-oxoethyl)-5-(pyrrolidine-1-carbonyl)-1H-thieno[3,2-c]pyrazole-3-carboxamide] belongs less than 1 µM.
Same read-out and setting: to `NC(=O)c1nn(CC(=O)N2C[C@H](F)C[C@H]2C(=O)Nc2cccc(-c3ccccc3Cl)c2F)c2cc(C(=O)NC3CCCC3)sc12` [Compound 61, 1-(2-((2S,4R)-2-(2′-chloro-2-fluorobiphenyl-3-ylcarbamoyl)-4-fluoropyrrolidin-1-yl)-2-oxoethyl)-N5-cyclopentyl-1H-thieno[3,2-c]pyrazole-3,5-dicarboxamide] belongs less than 1 µM; to `CN(C)C(=O)c1cc2c(s1)c(C(N)=O)nn2CC(=O)N1C[C@H](F)C[C@H]1C(=O)Nc1cccc(-c2ccccc2Cl)c1F` [Compound 62, 1-(2-((2S,4R)-2-(2′-chloro-2-fluorobiphenyl-3-ylcarbamoyl)-4-fluoropyrrolidin-1-yl)-2-oxoethyl)-N5,N5-dimethyl-1H-thieno[3,2-c]pyrazole-3,5-dicarboxamide], less than 1 µM.
Regarding `CC(=O)c1cn(CC(=O)N2C[C@H](F)C[C@H]2CCNS(=O)(=O)c2ccccc2)c2ccc(C(=O)NS(=O)(=O)C3CC3)cc12` [Compound 174, 3-acetyl-N-(cyclopropylsulfonyl)-1-(2-((2R,4R)-4-fluoro-2-(2-(phenylsulfonylamido)ethyl)pyrrolidin-1-yl)-2-oxoethyl)-1H-indole-5-carboxamide], the IC50 under setting [2] was more than 10 µM.
On to `CC(=O)c1cn(CC(=O)N2C[C@H](F)C[C@H]2C(=O)NCc2ccccc2)c2ccc(C(=O)NS(=O)(=O)C3CC3)cc12` [Compound 180, 3-acetyl-1-(2-((2S,4R)-2-(benzylcarbamoyl)-4-fluoropyrrolidin-1-yl)-2-oxoethyl)-N-(cyclopropylsulfonyl)-1H-indole-5-carboxamide], for which the IC50 under setting [2] fell in the range of 1 to 10 µM.
Same read-out and setting: to `CC(=O)c1cn(CC(=O)N2C[C@H](F)C[C@H]2C(=O)NCCc2ccccc2)c2ccc(C(=O)NS(=O)(=O)C3CC3)cc12` [Compound 185, 3-acetyl-N-(cyclopropylsulfonyl)-1-(2-((2S,4R)-4-fluoro-2-(phenethylcarbamoyl)pyrrolidin-1-yl)-2-oxoethyl)-1H-indole-5-carboxamide] belongs more than 10 µM; to `CC(=O)c1cn(CC(=O)N2C[C@H](F)C[C@H]2C(=O)NCCCc2ccccc2)c2ccc(C(=O)NS(=O)(=O)C3CC3)cc12` [Compound 190, 3-acetyl-N-(cyclopropylsulfonyl)-1-(2-((2S,4R)-4-fluoro-2-((3-phenylpropyl)carbamoyl)pyrrolidin-1-yl)-2-oxoethyl)-1H-indole-5-carboxamide], 1 to 10 µM; to `CC(=O)c1cn(CC(=O)N2C[C@H](F)C[C@H]2C(=O)NCCCCc2ccccc2)c2ccc(C(=O)NS(=O)(=O)C3CC3)cc12` [Compound 195, 3-acetyl-N-(cyclopropylsulfonyl)-1-(2-((2S,4R)-4-fluoro-2-((4-phenylbutyl)carbamoyl)pyrrolidin-1-yl)-2-oxoethyl)-1H-indole-5-carboxamide], more than 10 µM.
Still for that read-out and setting: to `CC(=O)c1cn(CC(=O)N2C[C@H](F)C[C@H]2C(=O)NCc2ccccc2)c2ccc(NC(=O)N3CCCC(F)(F)C3)cc12` [Compound 196, N-(3-acetyl-1-(2-((2S,4R)-2-(benzocarbamoyl)-4-fluoropyrrolidin-1-yl)-2-oxoethyl)-1H-indol-5-yl)-3,3-difluoropiperidine-1-carboxamide] belongs less than 1 µM; to `CC(=O)c1cn(CC(=O)N2C[C@H](F)C[C@H]2C(=O)NCCc2ccccc2)c2ccc(NC(=O)N3CCCC(F)(F)C3)cc12` [Compound 197, N-(3-acetyl-1-(2-((2S,4R)-4-fluoro-2-(phenethylcarbamoyl)pyrrolidin-1-yl)-2-oxoethyl)-1H-indol-5-yl)-3,3-difluoropiperidine-1-carboxamide], less than 1 µM.
Same read-out and setting: to `CC(=O)c1cn(CC(=O)N2C[C@H](F)C[C@H]2C(=O)NCCCc2ccccc2)c2ccc(NC(=O)N3CCCC(F)(F)C3)cc12` [Compound 198, N-(3-acetyl-1-(2-((2S,4R)-4-fluoro-2-((3-phenylpropyl)carbamoyl)pyrrolidin-1-yl)-2-oxoethyl)-1H-indol-5-yl)-3,3-difluoropiperidine-1-carboxamide] belongs less than 1 µM; to `CC(=O)c1cn(CC(=O)N2C[C@H](F)C[C@H]2C(=O)NCCCCc2ccccc2)c2ccc(NC(=O)N3CCCC(F)(F)C3)cc12` [Compound 199, N-(3-acetyl-1-(2-((2S,4R)-4-fluoro-2-((4-phenylbutyl)carbamoyl)pyrrolidin-1-yl)-2-oxoethyl)-1H-indol-5-yl)-3,3-difluoropiperidine-1-carboxamide], less than 1 µM.
`CC(=O)c1cn(CC(=O)N2C[C@H](F)C[C@H]2CCNS(=O)(=O)c2ccccc2)c2ccc(NC(=O)N3CCCC(F)(F)C3)cc12` [Compound 201, N-(3-acetyl-1-(2-((2R,4R)-4-fluoro-2-(2-(phenylsulfonamido)ethyl)pyrrolidin-1-yl)-2-oxoethyl)-1H-indol-5-yl)-3,3-difluoro-piperidine-1-carboxamide]: the 50% inhibitory concentration (IC50) under setting [2] is 1 to 10 µM.
Same read-out and setting: to `CC(=O)c1cn(CC(=O)N2CC[C@H]2C(=O)Nc2cccc(C)n2)c2ccc(NC(=O)N3CCCC(F)(F)C3)cc12` [Compound 205, (S)-N-(3-acetyl-1-(2-(2-((6-methylpyridin-2-yl)-carbamoyl)-azetidin-1-yl)-2-oxoethyl)-1H-indol-5-yl)-3,3-difluoropiperidine-1-carboxamide] belongs more than 10 µM; to `Cc1cccc(NC(=O)[C@@H]2[C@H]3CC[C@H](C3)N2C(=O)Cn2cc(C(N)=O)c3cc(C(=O)N4CCCC(F)(F)C4)ccc32)n1` [Compound 206, 5-(3,3-difluoropiperidine-1-carbonyl)-1-(2-((1R,3S,4S)-3-((6-methyl-pyridin-2-yl)-carbamoyl)-2-aza-bicyclo[2.2.1]heptan-2-yl)-2-oxoethyl)-1H-indole-3-carboxamide], 1 to 10 µM; to `CC(=O)c1nn(CC(=O)N2C[C@H](F)C[C@H]2C(=O)Nc2cccc(Br)n2)c2ccc(NC(=O)N3CCC(F)(F)C3)cc12` [Compound 207, N-(3-acetyl-1-(2-((2S,4R)-2-((6-bromo-pyridin-2-yl)carbamoyl)-4-fluoro-pyrrolidin-1-yl)-2-oxoethyl)-1H-indazol-5-yl)-3,3-difluoro-pyrrolidine-1-carboxamide], less than 1 µM.
Still for that read-out and setting: to `CC(=O)c1cn(CC(=O)N2C[C@H](F)C[C@H]2C(=O)NCc2cccc(Cl)c2F)c2ccc(C(=O)NS(=O)(=O)C3CC3)cc12` [Compound 208, 3-acetyl-1-(2-((2S,4R)-2-((3-chloro-2-fluorobenzyl)carbamoyl)-4-fluoropyrrolidin-1-yl)-2-oxoethyl)-N-(cyclopropylsulfonyl)-1H-indole-5-carboxamide] belongs less than 1 µM.
In the case of `Cc1cccc(NC(=O)[C@@H]2[C@H]3CC[C@H](C3)N2C(=O)Cn2cc(C(N)=O)c3cc(C(=O)NS(=O)(=O)C4CC4)ccc32)n1` [Compound 209, N5-(cyclopropylsulfonyl)-1-(2-((1R,4S)-3-((6-methyl-pyridin-2-yl)carbamoyl)-2-aza-bicyclo[2.2.1]heptan-2-yl)-2-oxoethyl)-1H-indole-3,5-dicarboxamide], the half-maximal inhibitory concentration (IC50) under setting [2] is more than 10 µM.
Still for that read-out and setting: to `CC(=O)c1nn(CC(=O)N2C[C@H](F)C[C@H]2C(=O)Nc2cccc(Br)n2)c2ccc(NC(=O)C3CCCC3(F)F)cc12` (stereo partly shown) [Compound 230] belongs less than 1 µM; to `CC(=O)c1nn(CC(=O)N2C[C@H](F)C[C@H]2C(=O)Nc2cccc(Br)n2)c2cc(C(=O)NS(=O)(=O)C3CC3)ccc12` [Compound 233, 3-acetyl-1-(2-((2S,4R)-2-((6-bromopyridin-2-yl)-carbamoyl)-4-fluoro-pyrrolidin-1-yl)-2-oxoethyl)-N-(cyclopropylsulfonyl)-1H-indazole-6-carboxamide], less than 1 µM.
Still for that read-out and setting: to `CC(=O)c1nn(CC(=O)N2[C@H](C(=O)Nc3cccc(Br)n3)C[C@@]3(C)C[C@@H]23)c2cc(C(=O)NS(=O)(=O)C3CC3)ccc12` [Compound 234, 3-acetyl-1-(2-((1R,3S,5R)-3-((6-bromopyridin-2-yl)carbamoyl)-5-methyl-2-azabicyclo [3.1.0]hexan-2-yl)-2-oxoethyl)-N-(cyclopropylsulfonyl)-1H-indazole-6-carboxamide] belongs 1 to 10 µM.
